Results taken from paper PMC7083837 (Nature Communications, 2020).
“And” between values parts separate entries of the source, which are not always exact repeats. Equal values may be shown once.

Experiments:
SERT WT [1] = target: T1, SERT WT (Homo sapiens, UniProt P31645); assay: [3H]IMI dissociation rate assay (allosteric potency); format: binding; settings: SERT WT; for IC50: read-out: Allosteric potency inhibition of [^3H]IMI dissociation (IC50);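 as to all read-outs here: membranes of COS-7 cells transiently expressing hSERT, dissociation of prebound radioligand tracked by filtration over seven time points (5–70 min), rate constant with test ligand expressed relative to buffer-only rate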
T1 construct: expressed in transfected cells; host or cells: COS-7

SERT WT [2] = target: T1, SERT WT; assay: [3H]S-CIT competition (equilibrium) binding on COS-7 membranes; settings: COS-7 membranes, SERT WT; read-out: Inhibition of [^3H]S-CIT binding (IC50);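 also: transiently transfected cell membranes incubated 1 h at room temperature with 5–10 nM [3H]S-CIT, nonspecific binding defined using 5 µM paroxetine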
SERT WT [3] = target: T1, SERT WT; assay: [3H]S-CIT dissociation rate assay (allosteric potency); format: binding; settings: for IC50: read-out: Allosteric potency inhibition of [^3H]S-CIT dissociation (IC50)
SERT WT [4] = target: T1, SERT WT; assay: [3H]5-HT uptake in intact COS-7 cells; format: cell-based; settings: read-out: KM (5-HT); SERT WT
[5] = tested on: extracellular 5-HT levels in rat hippocampus; assay: Microdialysis in ventral hippocampus of freely moving rats; format: in vivo; set-up: extracellular 5-HT level / AUC: unit not given here; settings: single animals;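 as to extracellular 5-HT level: percent of mean basal level in three fractions before perfusion start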
[6] = log conc -5.9101, listed as AF60098
[7] = log conc -5.4318, listed as AE56461
[8] = log conc -5.9101, listed as AE56461

T1 sequence (P31645 whole entry): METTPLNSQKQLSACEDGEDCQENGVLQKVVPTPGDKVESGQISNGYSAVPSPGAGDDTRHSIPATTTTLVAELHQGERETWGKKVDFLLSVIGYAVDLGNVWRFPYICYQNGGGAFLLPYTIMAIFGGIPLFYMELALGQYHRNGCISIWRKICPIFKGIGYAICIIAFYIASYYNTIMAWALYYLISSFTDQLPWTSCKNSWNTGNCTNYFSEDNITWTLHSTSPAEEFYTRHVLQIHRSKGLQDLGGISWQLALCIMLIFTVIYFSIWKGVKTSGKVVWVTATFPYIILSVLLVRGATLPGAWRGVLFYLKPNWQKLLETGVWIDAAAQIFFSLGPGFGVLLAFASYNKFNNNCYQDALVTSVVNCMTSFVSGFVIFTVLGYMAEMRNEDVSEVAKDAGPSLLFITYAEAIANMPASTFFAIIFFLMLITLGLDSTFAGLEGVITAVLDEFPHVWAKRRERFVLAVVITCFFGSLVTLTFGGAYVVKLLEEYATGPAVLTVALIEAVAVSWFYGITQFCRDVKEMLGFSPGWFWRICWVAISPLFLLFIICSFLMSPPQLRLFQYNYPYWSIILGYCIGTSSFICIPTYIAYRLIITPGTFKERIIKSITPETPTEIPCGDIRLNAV

Q: Which “[^3H]IMI dissociation relative to control (source data Fig 3C)” value (SERT WT [1]; [6]) does the source give for NC(=O)c1ccc2c(c1)CO[C@@]2(CCCN1CC=C(c2ccc3ccc(=O)[nH]c3c2)CC1)c1ccc(F)cc1 [AF, (S)-1-(4-fluorophenyl)-1-(3-(4-(2-oxo-1,2-dihydroquinolin-7-yl)-3,6-dihydropyridin-1(2H)-yl)propyl)-1,3-dihydroisobenzofuran-5-carboxamide] here?
A: Its value is 0.2397 and 0.2132 and 0.1806 and 0.1901 and 0.1781.

Q: What about the “[^3H]IMI dissociation relative to control (source data Fig 3C)” value (SERT WT [1]; log conc -6.3856, listed as AF60098) of the same compound?
A: The value was 0.6028 and 0.4774 and 0.425 and 0.3481 and 0.3211.

Q: And the “[^3H]IMI dissociation relative to control (source data Fig 3C)” value (SERT WT [1]; log conc -6.8627, listed as AF60098)?
A: The value was 0.7993 and 0.6981 and 0.6134 and 0.5939 and 0.5386.

Q: And the “[^3H]IMI dissociation relative to control (source data Fig 3C)” value (SERT WT [1]; log conc -7.3398, listed as AF60098)?
A: Its value is 0.7825 and 0.9163 and 0.612 and 0.781 and 0.6966.

Q: What about the “[^3H]IMI dissociation relative to control (source data Fig 3C)” value (SERT WT [1]; log conc -7.817, listed as AF60098) of the same compound?
A: Its value is 0.8219 and 0.9518 and 0.9715 and 0.9341 and 0.8939.

Q: What about the IC50 (SERT WT [1]) of the same compound?
A: Its IC50 is 192 nM and 190 nM.

Q: What about the IC50 (SERT WT [2]) of the same compound?
A: The IC50 was 79 nM.

Q: What about the “[^3H]S-CIT dissociation relative to control (source data Fig 3B)” value (SERT WT [3]; log conc -4, listed as AF60098) of the same compound?
A: Its value is 0.1701 and 0.2211 and 0.1573 and 0.2182 and 0.2661.

Q: And the “[^3H]S-CIT dissociation relative to control (source data Fig 3B)” value (SERT WT [3]; log conc -4.47756, listed as AF60098)?
A: The value was 0.2756 and 0.2914 and 0.2326 and 0.2923 and 0.3084.

Q: What about the “[^3H]S-CIT dissociation relative to control (source data Fig 3B)” value (SERT WT [3]; log conc -4.95468, listed as AF60098) of the same compound?
A: Its value is 0.3758 and 0.4105 and 0.4138 and 0.4162 and 0.3863.

Q: What about the “[^3H]S-CIT dissociation relative to control (source data Fig 3B)” value (SERT WT [3]; log conc -5.4318, listed as AF60098) of the same compound?
A: Its value is 0.7059 and 0.6013 and 0.6811 and 0.5633 and 0.7156.

Q: And the “[^3H]S-CIT dissociation relative to control (source data Fig 3B)” value (SERT WT [3]; [6])?
A: Its value is 0.8853 and 0.874 and 0.8934 and 0.8911 and 0.9427.

Q: What about the “[^3H]S-CIT dissociation relative to control (source data Fig 3B)” value (SERT WT [3]; log conc -6.38561, listed as AF60098) of the same compound?
A: The value was 0.9692 and 0.7987 and 0.9599 and 0.9034 and 0.9936.

Q: What about the “[^3H]S-CIT dissociation relative to control (source data Fig 3B)” value (SERT WT [3]; log conc -6.86273, listed as AF60098) of the same compound?
A: Its value is 0.955 and 0.9328 and 0.9433 and 0.9567 and 0.9549.

Q: What about the IC50 (SERT WT [3]) of the same compound?
A: The IC50 was 10400 nM.

Q: With NC(=O)c1ccc2c(c1)CO[C@@]2(CCCN1CCC(c2ccc3c(c2)NC(=O)CC3)CC1)c1ccc(F)cc1 [AE, (S)-1-(4-fluorophenyl)-1-(3-(4-(2-oxo-1,2,3,4-tetrahydroquinolin-7-yl)piperidin-1-yl)propyl)-1,3-dihydroisobenzofuran-5-carboxamide] as the compound, how does the “[^3H]IMI dissociation relative to control (source data Fig 3C)” value (SERT WT [1]; log conc -4.4776, listed as AE56461) read?
A: The value was 0.06439 and 0.064 and 0.0867 and 0.04446 and 0.04701.

Q: And the “[^3H]IMI dissociation relative to control (source data Fig 3C)” value (SERT WT [1]; [7])?
A: The value was 0.0763 and 0.076 and 0.0996 and 0.0916 and 0.07313.

Q: What about the “[^3H]IMI dissociation relative to control (source data Fig 3C)” value (SERT WT [1]; [8]) of the same compound?
A: The value was 0.1205 and 0.121 and 0.184 and 0.1786 and 0.1244.

Q: What about the “[^3H]IMI dissociation relative to control (source data Fig 3C)” value (SERT WT [1]; log conc -6.3856, listed as AE56461) of the same compound?
A: Its value is 0.2609 and 0.261 and 0.334 and 0.3145 and 0.2627.

Q: And the “[^3H]IMI dissociation relative to control (source data Fig 3C)” value (SERT WT [1]; log conc -6.8627, listed as AE56461)?
A: The value was 0.4485 and 0.449 and 0.476 and 0.4376 and 0.458.

Q: And the “[^3H]IMI dissociation relative to control (source data Fig 3C)” value (SERT WT [1]; log conc -7.3398, listed as AE56461)?
A: The value was 0.6779 and 0.678 and 0.684 and 0.679 and 0.715.

Q: What about the “[^3H]IMI dissociation relative to control (source data Fig 3C)” value (SERT WT [1]; log conc -7.817, listed as AE56461) of the same compound?
A: Its value is 0.9119 and 0.9318 and 0.9209 and 0.831 and 0.9158.

Q: And the “[^3H]IMI dissociation relative to control (source data Fig 3C)” value (SERT WT [1]; log conc -8.2941, listed as AE56461)?
A: Its value is 1.0028 and 1.006 and 0.9639 and 1.0302 and 1.0089.

Q: What about the “[^3H]IMI dissociation relative to control (source data Fig 3C)” value (SERT WT [1]; log conc -8.7712, listed as AE56461) of the same compound?
A: The value was 0.9594 and 0.977 and 0.9693 and 1.1187 and 1.1091.

Q: And the IC50 (SERT WT [1])?
A: The IC50 was 119 nM and 120 nM.

Q: And the IC50 (SERT WT [2])?
A: Its IC50 is 1040 nM.

Q: What about the “[^3H]S-CIT dissociation relative to control (source data Fig 3B)” value (SERT WT [3]; log conc -4, listed as AE56461) of the same compound?
A: Its value is 0.304 and 0.27 and 0.327.

Q: What about the “[^3H]S-CIT dissociation relative to control (source data Fig 3B)” value (SERT WT [3]; log conc -4.47756, listed as AE56461) of the same compound?
A: Its value is 0.466 and 0.496 and 0.522.

Q: And the “[^3H]S-CIT dissociation relative to control (source data Fig 3B)” value (SERT WT [3]; log conc -4.95468, listed as AE56461)?
A: Its value is 0.654 and 0.732 and 0.716.

Q: And the “[^3H]S-CIT dissociation relative to control (source data Fig 3B)” value (SERT WT [3]; [7])?
A: Its value is 0.892 and 0.93 and 0.888.

Q: And the “[^3H]S-CIT dissociation relative to control (source data Fig 3B)” value (SERT WT [3]; [8])?
A: The value was 0.912 and 1.007 and 0.973.

Q: What about the “[^3H]S-CIT dissociation relative to control (source data Fig 3B)” value (SERT WT [3]; log conc -6.38561, listed as AE56461) of the same compound?
A: The value was 0.927 and 1.032 and 0.97.

Q: And the “[^3H]S-CIT dissociation relative to control (source data Fig 3B)” value (SERT WT [3]; log conc -6.86273, listed as AE56461)?
A: Its value is 0.952 and 1.031 and 0.987.

Q: And the IC50 (SERT WT [3])?
A: Its IC50 is 33800 nM.

Q: For NCCc1c[nH]c2ccc(O)cc12 [5-HT, Serotonin, reference compound], which Km (SERT WT [4]) is on record?
A: The Km was 0.52 µM.

Q: CN(C)CCCN1c2ccccc2CCc2ccccc21 [imipramine, reference compound] was tested. Which AUC ([5]; Fig 6B Inset) did it give?
A: The AUC was 84 and 92 and 130 and 62 and 48 and 46 and 143 and 182 and 163 and 129 and 74 and 127 and 73.

Q: What about the “extracellular 5-HT level” value ([5]; Fig 6B, Time -40) of the same compound?
A: Its value is 77.25 and 153.32 and 98.52 and 112.22 and 48.77 and 123.66 and 115.15 and 92.18 and 91.72 and 110.66 and 146.17.
